Tests used:
barnyardgrass [1] = experiment: Test A pre-/postemergence herbicide test; format: in vivo, Echinochloa crus-galli
Summary of the method: (§1)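 Planted in loam–sand blend; treated the same day preemergence by directed soil spray, while separately grown plants at one- to two-leaf stage got postemergence spray. Compared visually with untreated controls after approximately 10 days; 100 means complete control.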

blackgrass = experiment: Test A postemergence herbicide test; format: in vivo, Alopecurus myosuroides
Summary of the method: (§2)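 Plants at the one- to two-leaf stage, 2–10 cm tall, grown in loam/sand pots, received postemergence sprays of the test chemicals. After about 10 days in the greenhouse, injury was scored visually against untreated controls on a 0–100 scale (0 none, 100 complete control).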

kochia = experiment: Test A pre-/postemergence herbicide test; format: in vivo, Kochia scoparia
Summary of the method: as §1

corn = experiment: Test A pre-/postemergence herbicide test; format: in vivo, Zea mays; settings: Postemergence
Summary of the method: as §1

giant foxtail = experiment: Test A pre-/postemergence herbicide test; format: in vivo, Setaria faberii
Summary of the method: as §1

sedge, umbrella = experiment: Test B flooded paddy test; format: in vivo, Cyperus difformis; settings: 500 g ai/ha, Flood; scale of 0 to 100 where 0 is no effect and 100 is complete control
Summary of the method: (§3)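 Plants were grown to the 2-leaf stage, then pots were flooded to 3 cm above the soil and compound was applied directly into the paddy water, with that depth held throughout. After 13 to 15 days in a greenhouse, injury was rated visually against untreated controls on a 0 to 100 scale (100 = complete control).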

ryegrass, Italian = experiment: Test A pre-/postemergence herbicide test; format: in vivo, Lolium multiflorum
Summary of the method: as §1

rice = experiment: Test B flooded paddy test; format: in vivo, Oryza sativa; settings: 500 g ai/ha, Flood; scale of 0 to 100 where 0 is no effect and 100 is complete control
Summary of the method: as §3

barnyardgrass [2] = experiment: Test B flooded paddy test; format: in vivo, Echinochloa crus-galli; settings: 500 g ai/ha, Flood; scale of 0 to 100 where 0 is no effect and 100 is complete control
Summary of the method: as §3

wheat = experiment: Test A pre-/postemergence herbicide test; format: in vivo, Triticum aestivum; settings: Postemergence
Summary of the method: as §1

pigweed = experiment: Test A pre-/postemergence herbicide test; format: in vivo, Amaranthus retroflexus
Summary of the method: as §1

galium = experiment: Test A postemergence herbicide test; format: in vivo, Galium aparine
Summary of the method: as §2

ducksalad = experiment: Test B flooded paddy test; format: in vivo, Heteranthera limosa; settings: 500 g ai/ha, Flood; scale of 0 to 100 where 0 is no effect and 100 is complete control
Summary of the method: as §3

ragweed = experiment: Test A pre-/postemergence herbicide test; format: in vivo, Ambrosia elatior
Summary of the method: as §1

[3] = Postemergence, 125 g ai/ha, visual rating on 0 to 100 scale (0 no effect, 100 complete control), approx. 10 days
[4] = Postemergence, 500 g ai/ha, 0 to 100 scale (0 no effect, 100 complete control)
[5] = Preemergence, 125 g ai/ha, 0 to 100 scale where 0 is no effect and 100 is complete control
[6] = Preemergence, 500 g ai/ha, visual rating on 0 to 100 scale (0 no effect, 100 complete control)
[7] = 125 g ai/ha, visual rating on 0 to 100 scale (0 no effect, 100 complete control), approx. 10 days
[8] = 500 g ai/ha, 0 to 100 scale (0 no effect, 100 complete control)

Structure (SMILES) | Plant response rating, Barnyardgrass (barnyardgrass [1]; [3]) | Plant response rating, Barnyardgrass (barnyardgrass [1]; [4]) | Plant response rating, Barnyardgrass (barnyardgrass [1]; [5]) | Barnyardgrass plant response rating (barnyardgrass [1]; [6]) | Plant response rating, Blackgrass (blackgrass; [7]) | Plant response rating, Blackgrass (blackgrass; [8]) | Plant response rating, Kochia (kochia; [3]) | Plant response rating, Kochia (kochia; [4]) | Plant response rating, Kochia (kochia; [5]) | Kochia plant response rating (kochia; [6]) | Plant response rating, Corn (corn; [7]) | Plant response rating, Corn (corn; [8]) | Plant response rating, Foxtail, Giant (giant foxtail; [3]) | Plant response rating, Foxtail, Giant (giant foxtail; [4]) | Plant response rating, Foxtail, Giant (giant foxtail; [5]) | Foxtail, Giant plant response rating (giant foxtail; [6]) | Plant response rating, Sedge, Umbrella (sedge, umbrella) | Plant response rating, Ryegrass, Italian (ryegrass, Italian; [3]) | Plant response rating, Ryegrass, Italian (ryegrass, Italian; [4]) | Plant response rating, Ryegrass, Italian (ryegrass, Italian; [5]) | other results
CC(C)c1cccc(C2CNC(=O)C2C(=O)Nc2ccccc2C(F)(F)F)c1 (stereo not drawn) [Compound 320] | 50 | 90 | 20 | 80 | 0 | 20 | 20 | 20 | 0 | 20 | 0 | 0 | 30 | 70 | 30 | 90 | 0 | 0 | 30 | 20 | Ryegrass, Italian plant response rating (ryegrass, Italian; [6]): 50; Plant response rating, Rice (rice): 0; Plant response rating, Barnyardgrass (barnyardgrass [2]): 45; Plant response rating, Wheat (wheat; [7]): 0; Plant response rating, Wheat (wheat; [8]): 0; Plant response rating, Pigweed (pigweed; [3]): 0; Plant response rating, Pigweed (pigweed; [4]): 0; Plant response rating, Pigweed (pigweed; [5]): 0; Pigweed plant response rating (pigweed; [6]): 0; Plant response rating, Galium (galium; [7]): 0; Plant response rating, Galium (galium; [8]): 0; Plant response rating, Ducksalad (ducksalad): 100; Plant response rating, Ragweed (ragweed; [3]): 0; Plant response rating, Ragweed (ragweed; [4]): 30; Plant response rating, Ragweed (ragweed; [5]): 0; Ragweed plant response rating (ragweed; [6]): 30
O=C1NCC(c2ccc(SC(F)(F)F)cc2)C1C(=O)Nc1ccccc1F (stereo not drawn) [Compound 321] | 0 | 50 | 0 | 30 | 0 | 0 | 0 | 0 | 0 | 0 | 0 | 0 | 0 | 50 | 0 | 50 | 0 | 0 | 0 | 0 | Ryegrass, Italian plant response rating (ryegrass, Italian; [6]): 0; Plant response rating, Rice (rice): 15; Plant response rating, Barnyardgrass (barnyardgrass [2]): 20; Plant response rating, Wheat (wheat; [7]): 0; Plant response rating, Wheat (wheat; [8]): 0; Plant response rating, Pigweed (pigweed; [3]): 0; Plant response rating, Pigweed (pigweed; [4]): 0; Plant response rating, Pigweed (pigweed; [5]): 0; Pigweed plant response rating (pigweed; [6]): 0; Plant response rating, Galium (galium; [7]): 0; Plant response rating, Galium (galium; [8]): 0; Plant response rating, Ducksalad (ducksalad): 40; Plant response rating, Ragweed (ragweed; [3]): 0; Plant response rating, Ragweed (ragweed; [4]): 0; Plant response rating, Ragweed (ragweed; [5]): 0; Ragweed plant response rating (ragweed; [6]): 0
O=C1NCC(c2ccc(SC(F)(F)F)cc2)C1C(=O)Nc1ccc(F)c(F)c1F (stereo not drawn) [Compound 322] | 0 | 60 | 0 | 40 | 0 | 0 | 0 | 0 | 0 | 0 | 0 | 20 | 0 | 60 | 0 | 70 | 0 | 0 | 0 | 0 | Ryegrass, Italian plant response rating (ryegrass, Italian; [6]): 0; Plant response rating, Rice (rice): 0; Plant response rating, Barnyardgrass (barnyardgrass [2]): 0; Plant response rating, Wheat (wheat; [7]): 0; Plant response rating, Wheat (wheat; [8]): 0; Plant response rating, Pigweed (pigweed; [3]): 0; Plant response rating, Pigweed (pigweed; [4]): 0; Plant response rating, Pigweed (pigweed; [5]): 0; Pigweed plant response rating (pigweed; [6]): 0; Plant response rating, Galium (galium; [7]): 0; Plant response rating, Galium (galium; [8]): 0; Plant response rating, Ducksalad (ducksalad): 100; Plant response rating, Ragweed (ragweed; [3]): 0; Plant response rating, Ragweed (ragweed; [4]): 0; Plant response rating, Ragweed (ragweed; [5]): 0; Ragweed plant response rating (ragweed; [6]): 0
O=C1NCC(c2cccc(-n3ccc(C(F)(F)F)n3)c2)C1C(=O)Nc1cccc(F)c1F (stereo not drawn) [Compound 326] | 0 | 20 | 0 | 30 | 0 | 0 | 0 | 30 | 40 | 50 | 0 | 0 | 20 | 50 | 50 | 60 | 0 | 0 | 0 | 0 | Ryegrass, Italian plant response rating (ryegrass, Italian; [6]): 40; Plant response rating, Rice (rice): 0; Plant response rating, Barnyardgrass (barnyardgrass [2]): 0; Plant response rating, Wheat (wheat; [7]): 0; Plant response rating, Wheat (wheat; [8]): 0; Plant response rating, Pigweed (pigweed; [3]): 0; Plant response rating, Pigweed (pigweed; [4]): 0; Plant response rating, Pigweed (pigweed; [5]): 0; Pigweed plant response rating (pigweed; [6]): 0; Plant response rating, Galium (galium; [7]): 0; Plant response rating, Galium (galium; [8]): 0; Plant response rating, Ducksalad (ducksalad): 0; Plant response rating, Ragweed (ragweed; [3]): 0; Plant response rating, Ragweed (ragweed; [4]): 0; Plant response rating, Ragweed (ragweed; [5]): 0; Ragweed plant response rating (ragweed; [6]): 0
O=C1NCC(c2cccc(I)c2)C1C(=O)Nc1cccc(F)c1F (stereo not drawn) [Compound 327] | 40 | 80 | 70 | 80 | 30 | 40 | 30 | 40 | 30 | 70 | 0 | 30 | 40 | 80 | 80 | 90 | 0 | 20 | 20 | 40 | Ryegrass, Italian plant response rating (ryegrass, Italian; [6]): 40; Plant response rating, Rice (rice): 0; Plant response rating, Barnyardgrass (barnyardgrass [2]): 0; Plant response rating, Wheat (wheat; [7]): 0; Plant response rating, Wheat (wheat; [8]): 20; Plant response rating, Pigweed (pigweed; [3]): 0; Plant response rating, Pigweed (pigweed; [4]): 20; Plant response rating, Pigweed (pigweed; [5]): 0; Pigweed plant response rating (pigweed; [6]): 20; Plant response rating, Galium (galium; [7]): 40; Plant response rating, Galium (galium; [8]): 60; Plant response rating, Ducksalad (ducksalad): 60; Plant response rating, Ragweed (ragweed; [3]): 0; Plant response rating, Ragweed (ragweed; [4]): 20; Plant response rating, Ragweed (ragweed; [5]): 20; Ragweed plant response rating (ragweed; [6]): 30

Reference: patent US10294202B2, “Pyrrolidinones as herbicides” (FMC Corporation, priority 2013, dated 2019)
